Measurements: patent publication US20120046273A1, “COMPOUNDS AND COMPOSITIONS FOR COGNITION-ENHANCEMENT, METHODS OF MAKING, AND METHODS OF TREATING” (MITHRIDION, INC., priority 2009, published 2012)

Tests used:
anesthetized normal rats = assay: In vivo measurement of salivation; design: species or system rat; conditions: anesthetized normal rats, dose-dependent between about 0.1 mg/kg and 1 mg/kg
Description: Suitable doses of test compounds or drug substances were administered using standard techniques to Long Evans Hooded rats weighing 225 to 350 grams, or CD-1 mice weighing 30 to 50 grams, which had been anesthetized using 2-3.5%% of isoflurane in oxygen. The animals were placed slightly head-down on an inclined, heated ramp. Rectal temperature was monitored using a thermocouple and the temperature of the heating pad was adjusted manually to maintain normal body temperature. Saliva was collected from the mouth by absorption onto pre-weighed slips of filter paper. The filter paper was changed periodically and the amount of saliva was measured by weighing the filter paper slips

[1] = biological target: T1, human muscarinic M3 receptors (Homo sapiens, UniProt P20309); assay: Inositol phosphate production in huM3/A9L cells (IPOne TR-FRET); assay type: cell-based
T1 construct: expressed in transfected cells; host or cells: A9L cells (gift from Professor W Messer)
T1 sequence (P20309 whole entry): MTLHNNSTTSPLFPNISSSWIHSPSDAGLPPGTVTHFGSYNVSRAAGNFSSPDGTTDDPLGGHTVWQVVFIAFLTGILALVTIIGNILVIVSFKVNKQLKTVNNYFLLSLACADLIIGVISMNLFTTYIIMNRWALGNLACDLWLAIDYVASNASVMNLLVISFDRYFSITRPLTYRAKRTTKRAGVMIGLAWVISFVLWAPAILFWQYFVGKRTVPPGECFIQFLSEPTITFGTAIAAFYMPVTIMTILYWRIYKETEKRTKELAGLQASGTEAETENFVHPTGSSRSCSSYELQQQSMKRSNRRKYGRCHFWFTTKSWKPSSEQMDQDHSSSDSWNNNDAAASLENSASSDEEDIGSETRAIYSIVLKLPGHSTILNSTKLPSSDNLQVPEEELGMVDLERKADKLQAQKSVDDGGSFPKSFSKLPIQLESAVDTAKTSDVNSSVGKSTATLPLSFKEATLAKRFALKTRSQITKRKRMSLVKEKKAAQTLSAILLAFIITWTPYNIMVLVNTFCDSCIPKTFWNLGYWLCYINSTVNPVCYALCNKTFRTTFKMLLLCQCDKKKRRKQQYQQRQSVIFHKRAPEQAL
Description: Muscarinic M1 and M3 agonist activity was evaluated by measuring the stimulation of inositol phosphate (IP) production in the presence of lithium chloride from A9L cells transfected with expression plasmids containing human muscarinic M1 and M3 receptors, respectively. The cell lines were a gift from Professor W Messer, and the methods were as described in Tejada F R et al. J. Med. Chem. 2006; 49: 7518-31 except that the assay was scaled down to run in 384 well plates, and IP was measured in the cell lysates using the non-isotopic IPOne TR-FRET assay (CIS-BIO, Inc).
Cells were grown to 90% confluence in 384 well hi-base plates (Greiner Bio-One), compounds were added at suitable concentrations in growth medium containing 10 mM LiCL, buffered with an extra 10 mM HEPES (pH7.4), and incubated for 60 minutes at 37° C. Cells were lysed and assayed for IP following the manufacturer's instructions.
The value for a full agonist is 100%, while partial agonists give values below 100%.

in vivo = conditions: rat, po
[2] = tested on: A-beta 1-40 and A-beta 1-42; assay: A-beta in hippocampal microdialysate; assay type: in vivo, Tg-2576 transgenic mice; conditions: Tg-2576 mice
From the text: These mice have high concentrations of A-beta in their brain tissue, thought to be the cause of neuron death in Alzheimer's disease, and accumulate amyloid plaques, recapitulating one of the hallmark pathological features of Alzheimer's disease.

[3] = rat, in vivo, po, 1 hour
[4] = tested on: apomorphine induced climbing; assay: Apomorphine induced climbing model of psychosis; assay type: in vivo, CD-I mice
How it was run: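 CD-I mice (1-2 months) dosed subcutaneously under isoflurane with compound or PBS vehicle (PBS or 96% PBS/4% hydroxypropyl-beta-cyclodextrin, 5 ml/kg), then 2 mg/kg apomorphine 5 min later. Climbing (≥3 paws off ground) in wire mesh cylinders scored for 1 min every 5 min over 60 min after dosing.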

human FMO1 Supersomes = biological target: T2, human FMO1 Supersomes (Homo sapiens, UniProt Q01740); assay: Metabolism by flavin monoxygenase 1 (FMO1) Supersomes; assay type: in vitro ADME
T2 construct: purchased BD Biosciences 456241
T2 sequence (Q01740 1-532): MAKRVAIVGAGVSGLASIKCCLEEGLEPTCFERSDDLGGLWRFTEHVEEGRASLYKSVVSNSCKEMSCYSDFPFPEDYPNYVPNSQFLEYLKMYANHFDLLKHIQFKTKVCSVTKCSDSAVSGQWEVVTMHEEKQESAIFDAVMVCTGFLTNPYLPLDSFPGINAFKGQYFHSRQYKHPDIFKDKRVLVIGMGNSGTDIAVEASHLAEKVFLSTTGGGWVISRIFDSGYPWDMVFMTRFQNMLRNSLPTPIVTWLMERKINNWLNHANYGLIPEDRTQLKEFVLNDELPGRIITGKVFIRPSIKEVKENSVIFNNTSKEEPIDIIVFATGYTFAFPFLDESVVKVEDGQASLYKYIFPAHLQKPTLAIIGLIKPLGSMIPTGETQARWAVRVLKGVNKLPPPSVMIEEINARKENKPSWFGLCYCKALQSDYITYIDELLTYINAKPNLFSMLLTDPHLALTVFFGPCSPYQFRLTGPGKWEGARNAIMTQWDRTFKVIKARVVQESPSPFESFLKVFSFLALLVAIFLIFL
Description: […] Aliquots were removed every 10 minutes, and 1% formic acid was added to halt the reaction. Samples were centrifuged, filtered through 0.2 micron spinfilter and the amount of each compound in the supernatants was quantitated using LC/MS/MS.

[5] = tested on: pooled male human liver microsomes; assay: Metabolism by human liver microsomes; assay type: in vitro ADME; conditions: 6 hours incubation
Description: Compounds were incubated with pooled male human liver microsomes (BD Biosciences, #452172) and an NADP-regenerating system in a phosphate buffer (pH 7.4) for a total of 6 hours. Aliquots were removed every 2 hours, and 1% formic acid was added to halt the reaction. Samples were centrifuged, filtered through 0.2 micron spinfilter and the amount of each compound in the supernatants was quantitated using LC/MS/MS.

With Cc1noc(C2CCCNC2)n1 (racemic) [Compound 82, 3-Methyl-5-(piperidin-3-yl)-1,2,4-oxadiazole] the salivation side effect (anesthetized normal rats) was “causes salivation”, the “huM3/A9L Smax” value ([1]; percentage of maximal stimulation by carbachol) was 54% and the “huM3/A9L ED50 relative to CCh” value ([1]; potency relative to carbachol) was “+/− (potency 0.5-2x CCh)”. The Kp at 1 hour (in vivo) was 2.38, the “reduction of the concentration of A-beta 1-40” value [2] was “approximately 40%” and the “reduction of the concentration of A-beta 1-42” value [2] was “approximately 40%”. For the same compound, the “PAMPA (? × 106)” value was 2.56 ? × 106, the “rate of crossing the lipid layer in the PAMPA test” value was “much higher rate” and the Brain/plasma ratio [3] was 2.38. For the same compound, the “Climbing Mean” value ([4]; 82 (0.1 mg/kg) + APO) was 8.9 s, the “Climbing Mean” value ([4]; 82 + APO + N-Methyl Scopolamine (0.3 mg/kg)) was 12.3 s and the “Climbing Mean” value ([4]; 82 + APO + scopolamine (0.3 mg/kg)) was 47.0 s. For the same compound, the “activity in the apomorphine induced climbing model” value ([4]; mice, sc) was “highly active and highly potent”, the “potency in inhibiting climbing compared with haloperidol” value ([4]; mice, sc) was “equipotent to haloperidol” and the “extent of metabolism in FMO Supersomes” value (human FMO1 Supersomes) was “less than half metabolized”. For the same compound, the “extent of metabolism in human liver microsomes” value [5] was “metabolized significantly less in human liver microsomes than in rat liver microsomes”.
